11 compounds from patent EP0590919A1, “Therapeutic agents for parkinson's disease” (KYOWA HAKKO KOGYO CO., LTD., priority 1992, dated 1994) can be followed below.

Molecules are shown by their SMILES. Bounds are passed on as bounds.

The first data set deals with T1, A₂ receptor (Rattus norvegicus, UniProt P30543).
T1 construct: from tissue; host or cells: rat corpus striatum membrane preparation
T1 sequence (P30543 whole entry): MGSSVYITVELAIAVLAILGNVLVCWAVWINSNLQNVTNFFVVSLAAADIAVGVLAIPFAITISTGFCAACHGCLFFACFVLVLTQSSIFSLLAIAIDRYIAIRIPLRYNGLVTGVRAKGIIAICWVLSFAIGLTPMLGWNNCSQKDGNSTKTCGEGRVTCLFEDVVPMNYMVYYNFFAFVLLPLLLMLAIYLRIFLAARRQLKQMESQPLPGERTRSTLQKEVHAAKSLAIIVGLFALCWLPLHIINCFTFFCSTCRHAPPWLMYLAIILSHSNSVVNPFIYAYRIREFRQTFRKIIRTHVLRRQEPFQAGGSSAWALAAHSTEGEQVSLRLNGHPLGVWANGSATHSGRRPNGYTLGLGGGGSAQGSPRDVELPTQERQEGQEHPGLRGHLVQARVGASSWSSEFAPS
Put plainly: Adenosine A₂ receptor binding test (³H-CGS 21680 binding). Particulars: 10^-6M; [^3H]CGS 21680 was used, rat corpus striatum; read-out: A2 Receptor Inhibition (%). Here is the method:
The similar procedure as in the above-described adenosine A₁ receptor binding test was repeated using rat corpus striatum to obtain the final precipitate of the tissue thereof. The precipitate was suspended in 50 mM Tris HCl buffer containing 10 mM magnesium chloride and 0.02 unit/mg tissue of adenosine deaminase (manufactured by Sigma Co.) to give a tissue concentration of 5 mg (wet weight)/ml.
The similar procedure as above was repeated to determine the radioactivity bound to the A₂ receptors using 50 µl of CGS 21680 labeled with tritium [³H-2-[p-(2-carboxyethyl)-phenethylamino]-5'-(N-ethylcarboxamide)adenosine: 40 Ci/mmol, manufactured by New England Nuclear Co. (J. Pharmacol. Exp. Ther., 251, 888 (1989)] (final concentration: 4.0 nM) in place of 50 µl of the mixture of N-ethylcarboxamidoadenosine labeled with tritium (³H-NECA: 26 Ci/mmol, manufactured by Amersham Co.) (final concentration: 3.8 nM) and cyclopentyladenosine (CPA, manufactured by Sigma Co.) (final concentration: 50 nM).
The inhibition rate of the test compound against the binding of A₂ receptors (³H-CGS 21680 binding) was calculated by the following equation: [formula] [Notes] • 1. "B" means the amount of radioactivity of ³H-CGS 21680 bound in the presence of a test compound at a concentration shown in Table 4. • 2. "T" means the amount of radioactivity of ³H-CGS 21680 bound in the absence of a test compound. • 3. "N" means the amount of radioactivity of ³H-CGS 21680 bound in the presence of 100 µM CPA.
Take `CCn1c(=O)c2[nH]c(/C=C/c3cccc(OC)c3)nc2n(CC)c1=O` [Compound 39, (E)-1,3-Diethyl-8-(3-methoxystyryl)xanthine]: the inhibition at 1 µM stood at 88%.
Take `CCCCOc1ccc(/C=C/c2nc3c([nH]2)c(=O)n(CC)c(=O)n3CC)cc1` [Compound 41, (E)-8-(4-Butoxystyryl)-1,3-diethylxanthine]: the inhibition at 1 µM turned out to be 52%.
For `CCCCOc1ccc(/C=C/c2nc3c(c(=O)n(CC)c(=O)n3CC)n2C)cc1` [Compound 42, (E)-8-(4-Butoxystyryl)-1,3-diethyl-7-methylxanthine], the inhibition at 1 µM stood at 87%.
In the case of `CCn1c(=O)c2[nH]c(/C=C/c3ccc(C)cc3)nc2n(CC)c1=O` [Compound 43, (E)-1,3-Diethyl-8-(4-methylstyryl)xanthine], the inhibition at 1 µM came out at 70%.
The same measure, in the same setting: the figure for `CCn1c(=O)c2[nH]c(/C=C/c3ccc(OC)c(C)c3)nc2n(CC)c1=O` [Compound 47, (E)-1,3-Diethyl-8-(4-methoxy-3-methylstyryl)xanthine] is 92%; for `CCn1c(=O)c2c(nc(/C=C/c3ccc(OC)c(C)c3)n2C)n(CC)c1=O` [Compound 48, (E)-1,3-Diethyl-8-(4-methoxy-3-methylstyryl)-7-methylxanthine] it is 99%.
As to `CCn1c(=O)c2c(nc(/C=C/c3ccc(C(F)(F)F)cc3)n2C)n(CC)c1=O` [Compound 74, (E)-1,3-Diethyl-7-methyl-8-(4-trifluoromethylstyryl)xanthine], the inhibition at 1 µM was determined as 87%.
Still for that read-out and setting: under `CCn1c(=O)c2[nH]c(/C=C/c3ccc(Br)cc3)nc2n(CC)c1=O` [Compound 77, (E)-8-(4-Bromostyryl)-1,3-diethylxanthine] stands 54%.
Consider `CCn1c(=O)c2[nH]c(/C=C/c3cccc(OC(F)(F)F)c3)nc2n(CC)c1=O` [Compound 79, (E)-1,3-Diethyl-8-(3-trifluoromethoxystyryl)xanthine], for which the inhibition at 1 µM stood at 79%.
As to `CCn1c(=O)c2c(nc(/C=C/c3cccc(OC(F)(F)F)c3)n2C)n(CC)c1=O` [Compound 80, (E)-1,3-Diethyl-7-methyl-8-(3-trifluoromethoxystyryl)xanthine], the inhibition at 1 µM came out at 86%.
Consider `CCn1c(=O)c2[nH]c(/C=C/c3ccc(OCOC)cc3)nc2n(CC)c1=O` [Compound 81, (E)-1,3-Diethyl-8-(4-methoxymethoxystyryl)xanthine], for which the inhibition at 1 µM turned out to be 95%.

The data set is the same for the next values; noted with them: 10^-7M; [^3H]CGS 21680 was used, rat corpus striatum; read-out: A2 Receptor Inhibition (%).
Take `CCn1c(=O)c2[nH]c(/C=C/c3cccc(OC)c3)nc2n(CC)c1=O` [Compound 39, (E)-1,3-Diethyl-8-(3-methoxystyryl)xanthine]: the inhibition at 0.1 µM was determined as 80%.
Turning to `CCCCOc1ccc(/C=C/c2nc3c([nH]2)c(=O)n(CC)c(=O)n3CC)cc1` [Compound 41, (E)-8-(4-Butoxystyryl)-1,3-diethylxanthine], the inhibition at 0.1 µM was 27%.
Same read-out and setting: the figure for `CCCCOc1ccc(/C=C/c2nc3c(c(=O)n(CC)c(=O)n3CC)n2C)cc1` [Compound 42, (E)-8-(4-Butoxystyryl)-1,3-diethyl-7-methylxanthine] is 46%; for `CCn1c(=O)c2[nH]c(/C=C/c3ccc(C)cc3)nc2n(CC)c1=O` [Compound 43, (E)-1,3-Diethyl-8-(4-methylstyryl)xanthine] it is 68%; for `CCn1c(=O)c2[nH]c(/C=C/c3ccc(OC)c(C)c3)nc2n(CC)c1=O` [Compound 47, (E)-1,3-Diethyl-8-(4-methoxy-3-methylstyryl)xanthine] it is 67%.
For `CCn1c(=O)c2c(nc(/C=C/c3ccc(OC)c(C)c3)n2C)n(CC)c1=O` [Compound 48, (E)-1,3-Diethyl-8-(4-methoxy-3-methylstyryl)-7-methylxanthine], the inhibition at 0.1 µM stood at 83%.
On to `CCn1c(=O)c2c(nc(/C=C/c3ccc(C(F)(F)F)cc3)n2C)n(CC)c1=O` [Compound 74, (E)-1,3-Diethyl-7-methyl-8-(4-trifluoromethylstyryl)xanthine], for which the inhibition at 0.1 µM amounted to 59%.
For `CCn1c(=O)c2[nH]c(/C=C/c3ccc(Br)cc3)nc2n(CC)c1=O` [Compound 77, (E)-8-(4-Bromostyryl)-1,3-diethylxanthine], the inhibition at 0.1 µM was 54%.
Still for that read-out and setting: the figure for `CCn1c(=O)c2[nH]c(/C=C/c3cccc(OC(F)(F)F)c3)nc2n(CC)c1=O` [Compound 79, (E)-1,3-Diethyl-8-(3-trifluoromethoxystyryl)xanthine] is 53%.
Same read-out and setting: under `CCn1c(=O)c2c(nc(/C=C/c3cccc(OC(F)(F)F)c3)n2C)n(CC)c1=O` [Compound 80, (E)-1,3-Diethyl-7-methyl-8-(3-trifluoromethoxystyryl)xanthine] stands 72%.
As for `CCn1c(=O)c2[nH]c(/C=C/c3ccc(OCOC)cc3)nc2n(CC)c1=O` [Compound 81, (E)-1,3-Diethyl-8-(4-methoxymethoxystyryl)xanthine], the inhibition at 0.1 µM stood at 78%.

For the next data set, the system named is dd-strain male mice. Nature of the data set: Acute toxicity test (minimum lethal dose, oral). The format is in vivo. To be noted: oral administration, three mice per group, mortality seven days after administration. The protocol:
Test compounds were orally administered to groups of dd-strain male mice weighing 20 ± 1 g, each group consisting of three mice. Seven days after the administration, minimum lethal dose (MLD) of each compound was determined by observing the mortality.
For `CCn1c(=O)c2[nH]c(/C=C/c3cccc(OC)c3)nc2n(CC)c1=O` [Compound 39, (E)-1,3-Diethyl-8-(3-methoxystyryl)xanthine], the MLD is more than 100 mg/kg.
As to `CCCCOc1ccc(/C=C/c2nc3c([nH]2)c(=O)n(CC)c(=O)n3CC)cc1` [Compound 41, (E)-8-(4-Butoxystyryl)-1,3-diethylxanthine], the MLD was more than 100 mg/kg.
Same read-out and setting: the figure for `CCCCOc1ccc(/C=C/c2nc3c(c(=O)n(CC)c(=O)n3CC)n2C)cc1` [Compound 42, (E)-8-(4-Butoxystyryl)-1,3-diethyl-7-methylxanthine] is more than 100 mg/kg.
As for `CCn1c(=O)c2[nH]c(/C=C/c3ccc(C)cc3)nc2n(CC)c1=O` [Compound 43, (E)-1,3-Diethyl-8-(4-methylstyryl)xanthine], the MLD is more than 100 mg/kg.
As to `CCn1c(=O)c2[nH]c(/C=C/c3ccc(OC)c(C)c3)nc2n(CC)c1=O` [Compound 47, (E)-1,3-Diethyl-8-(4-methoxy-3-methylstyryl)xanthine], the MLD is listed as more than 100 mg/kg.
Regarding `CCn1c(=O)c2c(nc(/C=C/c3ccc(OC)c(C)c3)n2C)n(CC)c1=O` [Compound 48, (E)-1,3-Diethyl-8-(4-methoxy-3-methylstyryl)-7-methylxanthine], the MLD is recorded as more than 100 mg/kg.
With `CCn1c(=O)c2c(nc(/C=C/c3ccc(C(F)(F)F)cc3)n2C)n(CC)c1=O` [Compound 74, (E)-1,3-Diethyl-7-methyl-8-(4-trifluoromethylstyryl)xanthine], the MLD is recorded as more than 300 mg/kg.
Take `CCn1c(=O)c2[nH]c(/C=C/c3ccc(Br)cc3)nc2n(CC)c1=O` [Compound 77, (E)-8-(4-Bromostyryl)-1,3-diethylxanthine]: the MLD was more than 100 mg/kg.
For the compound `CCn1c(=O)c2[nH]c(/C=C/c3cccc(OC(F)(F)F)c3)nc2n(CC)c1=O` [Compound 79, (E)-1,3-Diethyl-8-(3-trifluoromethoxystyryl)xanthine], the MLD is more than 100 mg/kg.
The compound `CCn1c(=O)c2c(nc(/C=C/c3cccc(OC(F)(F)F)c3)n2C)n(CC)c1=O` [Compound 80, (E)-1,3-Diethyl-7-methyl-8-(3-trifluoromethoxystyryl)xanthine] yielded an MLD of more than 100 mg/kg.
`CCn1c(=O)c2[nH]c(/C=C/c3ccc(OCOC)cc3)nc2n(CC)c1=O` [Compound 81, (E)-1,3-Diethyl-8-(4-methoxymethoxystyryl)xanthine] yielded an MLD of more than 100 mg/kg.
